Read-outs that look alike come from different tables or passages of the source.
Legend:
Type in all cases: cell-based, human
[1] = test system: HTT mRNA; assay: RT-qPCR splicing assay, HTT canonical junction (CJ) and alternative junction (AJ) mRNA; conditions: Homo sapiens; for AC50: increase in HTT alternative junction (AJ) mRNA, read-out: HTT AJ AC50
Method in brief: (§1)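 Following a 24-hour incubation of A673 or K562 cells with serially diluted compound (3-fold steps, highest final 10 uM), the lysates undergo cDNA synthesis plus qPCR. Canonical and alternative junctions are each quantified against PPIA, GAPDH or GUSB.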

[2] = test system: MYB mRNA; assay: RT-qPCR splicing assay, MYB canonical junction (CJ) and alternative junction (AJ) mRNA; conditions: Homo sapiens; for AC50: increase in MYB alternative junction (AJ) mRNA, read-out: MYB AJ AC50
Method in brief: as §1

[3] = test system: Target C; assay: RT-qPCR splicing assay panel, Target C canonical junction (CJ) mRNA; conditions: Homo sapiens; Table 5 panel; canonical junction qPCR; compound concentration having 50% response in CJ decrease; read-out: Target C IC50 (decrease in CJ mRNA levels)
Method in brief: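 Cells are plated (A673 allowed 24 h to adhere), dosed with an 11-point 3-fold series topping at 10 uM final, and incubated 24 h at 37 °C. Lysis is followed by cDNA synthesis and qPCR of the CJ transcript, normalized to a housekeeping gene.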

[4] = test system: Target C; assay: HiBiT protein abundance assay, Target C (Promega Nano-Glo HiBiT Lytic Detection System, knock-in K562 cell line); conditions: Homo sapiens, K562, 24 h, HiBiT K562 cell line, 24 hours, top dose 10 μM; read-out: Effect on protein abundance, Target C (IC50 category)
Method in brief: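 HiBiT knock-in K562 cells (10,000/well) were treated for 24 h at 37 °C with a 10-point 3-fold dilution series, top final concentration 10 μM, DMSO ≤0.25%. Lytic HiBiT luminescence was read, normalized to unmodified K562 and DMSO-treated controls, and IC50 was interpolated from a four-parameter logistic fit.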

[5] = decrease in HTT canonical junction (CJ) mRNA, RT-qPCR, read-out: HTT CJ IC50
[6] = Table 5 panel, canonical junction qPCR, compound concentration having 50% response in CJ decrease, read-out: HTT IC50 (decrease in CJ mRNA levels)
[7] = Table 5 panel, canonical junction qPCR, compound concentration having 50% response in CJ decrease, read-out: MYB IC50 (decrease in CJ mRNA levels)
[8] = decrease in MYB canonical junction (CJ) mRNA, RT-qPCR, read-out: MYB CJ IC50

Structure (SMILES)	IC50 [1, 5] [nM]	AC50 ([1]; RT-qPCR) [nM]	IC50 [1, 6] [nM]	IC50 [2, 7] [nM]	IC50 [2, 8] [nM]	AC50 ([2]; RT-qPCR) [nM]	IC50 [3] [nM]	IC50 [4] [nM]
Cc1cn2nc(-c3ccc4c(=O)n([C@@H]5CCNC6(CC6)C5)cnc4c3)cc(C)c2n1 [Compound 350, 3-[(7R)-4-azaspiro[2.5]octan-7-yl]-7-{2,8-dimethylimidazo[1,2-b]pyridazin-6-yl}quinazolin-4-one]	< 100	< 100	< 100	< 100	< 100	< 100	100 to 1000	< 100
Cc1cn2nc(-c3ccc4c(c3)CCN([C@@H]3CCN[C@H](C)C3)C4=O)cc(C)c2n1 [Compound 281]	1000 to 10000	1000 to 10000	1000 to 10000	1000 to 10000	1000 to 10000	1000 to 10000	1000 to 10000	1000 to 10000
Cc1cn2nc(-c3ccc4c(c3)CCN(C3CCN(C)C3)C4=O)cc(C)c2n1 (centres unmarked) [Compound 282]	> 10000	> 10000	> 10000	> 10000	> 10000	> 10000	> 10000	> 10000
Cn1cc2cc(-c3cc(F)c4c(=O)n(C5CCNCC5)cnc4c3)cc(C#N)c2n1 [Compound 316]	100 to 1000	100 to 1000	100 to 1000	< 100	< 100	< 100	100 to 1000	100 to 1000
Cc1cn2nc(-c3ccc4c(=O)n(C5CCNC(C)(C)C5)ncc4c3)cc(C)c2n1 (centres unmarked) [Compound 279]	100 to 1000	100 to 1000	100 to 1000	< 100	100 to 1000	< 100	100 to 1000	< 100
Cc1cn2nc(-c3cc(F)c4c(=O)n(C5CCNCC5)cnc4c3)cc2c(C)n1 [Compound 318]	< 100	< 100	< 100	< 100	< 100	< 100	100 to 1000	100 to 1000
Cc1cn2nc(-c3cc(F)c4c(=O)n(C5CCNC6(CC6)C5)ncc4c3)cc(C)c2n1 (centres unmarked) [Compound 312]	< 100	< 100	< 100	< 100	< 100	< 100	< 100	< 100
Cc1cn2nc(-c3ccc4c(=O)n([C@@H]5CCN(C)[C@H](C)C5)ncc4c3)cc(C)c2n1 [Compound 277]	100 to 1000	100 to 1000	100 to 1000	100 to 1000	100 to 1000	100 to 1000	1000 to 10000	100 to 1000
Cc1cn2nc(-c3ccc4c(=O)n(C5CCN(C)CC5)ccc4c3)cc(C)c2n1 [Compound 310]	100 to 1000	100 to 1000	100 to 1000	< 100	< 100	< 100	100 to 1000	100 to 1000
Cc1cn2nc(-c3ccc4c(=O)n(C5CCN(C)CC5)cnc4c3F)cc(C)c2n1 [Compound 290]	100 to 1000	100 to 1000	100 to 1000	100 to 1000	100 to 1000	100 to 1000	100 to 1000	100 to 1000
Cc1cn2cc(-c3cc(F)c4c(=O)n(C5CCNCC5)cnc4c3)nc2c(C)n1 [Compound 319]	1000 to 10000	1000 to 10000	1000 to 10000	100 to 1000	1000 to 10000	100 to 1000	1000 to 10000	1000 to 10000
Cc1cn2cc(-c3ccc4c(=O)n(C5CCNCC5)cnc4c3)cc(Cl)c2n1 [Compound 291]	100 to 1000	100 to 1000	100 to 1000	100 to 1000	< 100	100 to 1000	100 to 1000	100 to 1000
Cc1cn2cc(-c3ccc4c(=O)n(C5CCN(C)CC5)cnc4c3)ncc2n1 [Compound 308]	1000 to 10000	1000 to 10000	1000 to 10000	1000 to 10000	1000 to 10000	1000 to 10000	1000 to 10000	1000 to 10000
Cc1cn2nc(-c3cc(O)c4c(=O)n(C5CCNC5)cnc4c3)cc(C)c2n1 (centres unmarked) [Compound 362, 7-{2,8-dimethylimidazo[1,2-b]pyridazin-6-yl}-5-hydroxy-3-(pyrrolidin-3-yl)quinazolin-4-one]	> 10000	> 10000	> 10000	1000 to 10000	1000 to 10000	1000 to 10000	> 10000	> 10000
O=c1c2ccc(-c3cn[nH]c3)cc2ncn1C1CCNCC1 [Compound 284]	> 10000	> 10000	> 10000	> 10000	> 10000	> 10000	> 10000	> 10000
Cc1cn2nc(-c3ccc4c(=O)n(C5CCN(C)CC5)cnc4c3)nc2c(C)n1 [Compound 288, 7-{6,8-dimethyl-[1,2,4]triazolo[1,5-a]pyrazin-2-yl}1-3-(1-methylpiperidin-4-yl)quinazolin-4-one]	1000 to 10000	1000 to 10000	1000 to 10000	1000 to 10000	1000 to 10000	1000 to 10000	1000 to 10000	1000 to 10000
Cc1cn2cc(-c3cc(F)c4c(=O)n(C5CNCCC5=O)cnc4c3)cc(F)c2n1 (centres unmarked) [Compound 352, 5-fluoro-7-{8-fluoro-2-methylimidazo[1,2-a]pyridin-6-yl}-3-(4-oxopiperidin-3-yl)quinazolin-4-one]	> 10000	> 10000	> 10000	> 10000	> 10000	> 10000	> 10000	> 10000
Cc1cn2nc(-c3ccc4c(=O)n([C@@H]5CCN[C@H](C)C5)ncc4c3)cc(C)c2n1 [Compound 272]	100 to 1000	< 100	< 100	< 100	100 to 1000	< 100	100 to 1000	100 to 1000
Cc1cn2cc(-c3ccc4c(=O)n(C5CCN(C)CC5)cnc4c3)nc2c(C)n1 [Compound 302]	1000 to 10000	1000 to 10000	1000 to 10000	1000 to 10000	1000 to 10000	1000 to 10000	1000 to 10000	1000 to 10000
CN1CCN(c2ccc3c(=O)n(-c4ccc5nn(C)cc5c4)cnc3c2)CC1 [Compound 152]	> 10000	> 10000	> 10000	> 10000	> 10000	1000 to 10000	> 10000	> 10000
Cn1cc2cc(-c3cc(F)c4c(=O)n(C5CCNCC5)cnc4c3)cc(F)c2n1 [Compound 314]	1000 to 10000	1000 to 10000	1000 to 10000	1000 to 10000	1000 to 10000	1000 to 10000	> 10000	> 10000
Cc1cn2nc(-c3cc(N(C)C)c4c(=O)n(C5CCNC6(CC6)C5)cnc4c3)cc(C)c2n1 (centres unmarked) [Compound 345]	< 100	< 100	< 100	< 100	< 100	< 100	< 100	> 10000
